From US20240132431A1, “METHOD FOR ALKYLATING ACIDIC FUNCTIONAL GROUP” (Chugai Seiyaku Kabushiki Kaisha, priority 2021, published 2024)

Molecular target: T1, Bcl-2 protein (Recombinant Human Bcl-2 Protein) (Homo sapiens, UniProt P10415)
T1 construct: purchased Novus NBP2-34889
Assay: Binding evaluation of mixture library compounds to Bcl-2 using AS-MS (affinity selection mass spectrometry)
Summary of the method: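 Bcl-2 binding is scored from LC/MS signal retained with protein through gel-filtration spin columns, normalised to unfiltered and protein-free controls. Incubation: 20 μM protein, […] per compound, 1 h, 23° C.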

T1 sequence (P10415 whole entry): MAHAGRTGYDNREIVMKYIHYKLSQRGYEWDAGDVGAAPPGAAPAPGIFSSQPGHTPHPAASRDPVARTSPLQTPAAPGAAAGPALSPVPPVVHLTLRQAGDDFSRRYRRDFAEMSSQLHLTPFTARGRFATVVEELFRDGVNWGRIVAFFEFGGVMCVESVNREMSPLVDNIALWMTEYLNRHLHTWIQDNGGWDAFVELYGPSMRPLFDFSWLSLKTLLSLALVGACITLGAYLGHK

Row | SMILES | ASMS ratio (%) (n = 1) | ASMS ratio (%) (n = 2)
1 | CCOc1cncc(-c2ccccc2CCC(=O)N2CCN(c3ccc(C(=O)NS(=O)(=O)CCC(F)(F)F)nn3)CC2)c1 [B2N012-01, 6-[4-[3-[2-(5-Ethoxypyridin-3-yl)phenyl]propanoyl]piperazin-1-yl]-N-(3,3,3-trifluoropropylsulfonyl)pyridazine-3-carboxamide] | 0.0% | 0.0%
2 | CCOc1cccc(-c2ccc(C(=O)N3CCN(c4ccc(C(=O)NS(=O)(=O)CCC(F)(F)F)nn4)CC3)c3ccccc23)c1 [B2N013-01, 6-[4-[4-(3-Ethoxyphenyl)naphthalene-1-carbonyl]piperazin-1-yl]-N-(3,3,3-trifluoropropylsulfonyl)pyridazine-3-carboxamide] | 0.0% | 0.0%
3 | CCOc1cncc(-c2ccc(C(=O)N3CCN(c4ccc(C(=O)NS(=O)(=O)CCC(F)(F)F)nn4)CC3)c3ccccc23)c1 [B2N014-01, 6-[4-[4-(5-Ethoxypyridin-3-yl)naphthalene-1-carbonyl]piperazin-1-yl]-N-(3,3,3-trifluoropropylsulfonyl)pyridazine-3-carboxamide] | 0.0% | 0.0%
4 | CCOc1cncc(-c2cc(C(=O)N3CCN(c4ccc(C(=O)NS(=O)(=O)CCC(F)(F)F)nn4)CC3)cc(C(C)(C)C)c2)c1 [B2N016-01, 6-[4-[3-tert-Butyl-5-(5-ethoxypyridin-3-yl)benzoyl]piperazin-1-yl]-N-(3,3,3-trifluoropropylsulfonyl)pyridazine-3-carboxamide] | 0.0% | 0.0%
5 | CCOc1cncc(-c2cc(C(=O)N3CCN(c4ccc(C(=O)NS(=O)(=O)CCC(F)(F)F)nn4)CC3)cc(C(F)(F)F)c2)c1 [B2N018-01, 6-[4-[3-(5-Ethoxypyridin-3-yl)-5-(trifluoromethyl)benzoyl]piperazin-1-yl]-N-(3,3,3-trifluoropropylsulfonyl)pyridazine-3-carboxamide] | 0.0% | 1.0%
6 | CCOc1cncc(C#Cc2cc(C(=O)N3CCN(c4ccc(C(=O)NS(=O)(=O)CCC(F)(F)F)nn4)CC3)cc(C(F)(F)F)c2)c1 [B2N020-01, 6-[4-[3-[2-(5-Ethoxypyridin-3-yl)ethynyl]-5-(trifluoromethyl)benzoyl]piperazin-1-yl]-N-(3,3,3-trifluoropropylsulfonyl)pyridazine-3-carboxamide] | 0.0% | 0.0%
7 | CCOc1cccc(-c2cnn(-c3cc(C(=O)N4CCN(c5ccc(C(=O)NS(=O)(=O)CCC(F)(F)F)nn5)CC4)cc(C(F)(F)F)c3)c2)c1 [B2N021-01, 6-[4-[3-[4-(3-Ethoxyphenyl)pyrazol-1-yl]-5-(trifluoromethyl)benzoyl]piperazin-1-yl]-N-(3,3,3-trifluoropropylsulfonyl)pyridazine-3-carboxamide] |  | 0.0%
8 | CCOc1cncc(-c2cnn(-c3cc(C(=O)N4CCN(c5ccc(C(=O)NS(=O)(=O)CCC(F)(F)F)nn5)CC4)cc(C(F)(F)F)c3)c2)c1 [B2N022-01, 6-[4-[3-[4-(5-Ethoxypyridin-3-yl)pyrazol-1-yl]-5-(trifluoromethyl)benzoyl]piperazin-1-yl]-N-(3,3,3-trifluoropropylsulfonyl)pyridazine-3-carboxamide] | 0.0% | 0.0%
9 | CCOc1cccc(-c2csc(C(=O)N3CCN(c4ccc(C(=O)NS(=O)(=O)CCC(F)(F)F)cc4)CC3)c2)c1 [B2N023-01, 4-[4-[4-(3-Ethoxyphenyl)thiophene-2-carbonyl]piperazin-1-yl]-N-(3,3,3-trifluoropropylsulfonyl)benzamide] | 0.0% | 0.0%
10 | CCOc1cncc(-c2csc(C(=O)N3CCN(c4ccc(C(=O)NS(=O)(=O)CCC(F)(F)F)cc4)CC3)c2)c1 [B2N024-01, 4-[4-[4-(5-Ethoxypyridin-3-yl)thiophene-2-carbonyl]piperazin-1-yl]-N-(3,3,3-trifluoropropylsulfonyl)benzamide] | 0.0% | 0.0%
11 | CCOc1cccc(-c2ccc(C(=O)N3CCN(c4ccc(C(=O)NS(=O)(=O)CCC(F)(F)F)cc4)CC3)cc2C)c1 [B2N025-01, 4-[4-[4-(3-Ethoxyphenyl)-3-methylbenzoyl]piperazin-1-yl]-N-(3,3,3-trifluoropropylsulfonyl)benzamide] | 0.0% | 0.0%
12 | CCOc1cncc(-c2ccc(C(=O)N3CCN(c4ccc(C(=O)NS(=O)(=O)CCC(F)(F)F)cc4)CC3)cc2C)c1 [B2N026-01, 4-[4-[4-(5-Ethoxypyridin-3-yl)-3-methylbenzoyl]piperazin-1-yl]-N-(3,3,3-trifluoropropylsulfonyl)benzamide] | −1.5% | −0.7%
13 | CCOc1cncc(-c2ccc(C(=O)N3CCN(c4ccc(C(=O)NS(=O)(=O)CCC(F)(F)F)cc4)CC3)cc2F)c1 [B2N028-01, 4-[4-[4-(5-Ethoxypyridin-3-yl)-3-fluorobenzoyl]piperazin-1-yl]-N-(3,3,3-trifluoropropylsulfonyl)benzamide] | −0.7% | −0.9%
14 | CCOc1cncc(C#Cc2ccccc2C(=O)N2CCN(c3ccc(C(=O)NS(=O)(=O)CCC(F)(F)F)cc3)CC2)c1 [B2N030-01, 4-[4-[2-[2-(5-Ethoxypyridin-3-yl)ethynyl]benzoyl]piperazin-1-yl]-N-(3,3,3-trifluoropropylsulfonyl)benzamide] | 0.0% | 0.0%
15 | CCOc1cccc(C#Cc2cncc(C(=O)N3CCN(c4ccc(C(=O)NS(=O)(=O)CCC(F)(F)F)cc4)CC3)c2)c1 [B2N031-01, 4-[4-[5-[2-(3-Ethoxyphenyl)ethynyl]pyridine-3-carbonyl]piperazin-1-yl]-N-(3,3,3-trifluoropropylsulfonyl)benzamide] | 0.0% | 0.0%
16 | CCOc1cncc(C#Cc2cncc(C(=O)N3CCN(c4ccc(C(=O)NS(=O)(=O)CCC(F)(F)F)cc4)CC3)c2)c1 [B2N032-01, 4-[4-[5-[2-(5-Ethoxypyridin-3-yl)ethynyl]pyridine-3-carbonyl]piperazin-1-yl]-N-(3,3,3-trifluoropropylsulfonyl)benzamide] | −0.4% | −1.0%
17 | CCOc1cccc(-c2ccccc2CCC(=O)N2CCN(c3ccc(C(=O)NS(=O)(=O)CCC(F)(F)F)cc3)CC2)c1 [B2N033-01, 4-[4-[3-[2-(3-Ethoxyphenyl)phenyl]propanoyl]piperazin-1-yl]-N-(3,3,3-trifluoropropylsulfonyl)benzamide] | 0.0% | 0.0%
18 | CCOc1cncc(-c2ccccc2CCC(=O)N2CCN(c3ccc(C(=O)NS(=O)(=O)CCC(F)(F)F)cc3)CC2)c1 [B2N034-01, 4-[4-[3-[2-(5-Ethoxypyridin-3-yl)phenyl]propanoyl]piperazin-1-yl]-N-(3,3,3-trifluoropropylsulfonyl)benzamide] | −0.2% | 1.0%
